Measurements: patent US20220395553A1, “CXCR4 ANTAGONIST PEPTIDES” (COHBAR, INC., priority 2019, published 2022)
Square brackets hold non-standard residues; d marks the D form. Ends that are not written are not given here.

Experiments:
[1] = system: CXCR4/CXCL12 induced p-MEK; experiment: CXCR4/CXCL12 induced p-MEK in Jurkat cells (ELISA); format: cell-based, human; settings: Homo sapiens, Jurkat, 5 min
Procedure, shortened: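 Jurkat cells in RPMI+GlutaMax containing 10% FBS and 1% penicillin/streptomycin, fresh or conditioned, were resuspended at 2×10^6 cells/ml and […] aliquots placed in tubes. After a 5 min stimulation they were pelleted, rinsed with HBSS and lysed with PMSF and protease/phosphatase inhibitors. Phospho-MEK1 (Ser217/221) was quantified by sandwich ELISA with absorbance read at 450 nm.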

[2] = system: U937 cells; experiment: CXCL12 mediated cell migration, U937 cells; format: cell-based, human; settings: Homo sapiens, U-937, 4 h, read-out: Percent Inhibition of CXCL12 Mediated Migration
Experimental: Peptides were initially prepared as 1 mM stock in H2O and tested at a final concentration of 1 μM. […] U937 cells were resuspended in serum free media containing 0.5% bovine serum albumin (RPMI+GlutaMax (Gibco/Thermo Fisher Scientific, Gaithersburg, Md.)) at density of 5×10^6 cells/ml. […] Following the 4 hour incubation period the filter inserts were carefully removed and the migration of cells across the filter into the bottom chamber (receiver wells) was determined by measuring ATP levels using Cell TiterGlo 2.0, according to manufacturer's instructions (Promega, Madison, Wis.); luminescence measured using a Cytation 3 plate reader (BioTek, Winooski, Vt.).

[3] = system: Jurkat cells; experiment: CXCL12 mediated cell migration, Jurkat cells; format: cell-based, human; settings: Homo sapiens, Jurkat, 1 h, read-out: Percent Inhibition of CXCL12 Mediated Migration (1.1 μM Test Article)
Procedure, shortened: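 Jurkat cells in serum-free RPMI with 0.5% BSA, 250,000 per upper chamber of a 5 μm Transwell, with peptides at 1.1 μM final. Migration toward CXCL12 ran 1 h at 37 °C in 5% CO2. Cells reaching the lower chamber quantified by ATP luminescence (CellTiter-Glo 2.0).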

[4] = system: B16F10, mouse melanoma cell line; experiment: Tumor growth in B16F10 syngeneic mouse cancer model; format: in vivo; settings: peptide 10 mg/kg QD subcutaneous, temozolomide 50 mg/kg TIW oral gavage; for Mean (SEM) Percent Reduction in Tumor Volume vs Control: Day 11, relative to vehicle control; for Mean (SEM) Tumor Volume on Day 11: female C57Bl/6 mice, 8-10 animals per arm
Experimental: The effect of the peptides on tumor growth can be assessed by monitoring tumor volume in a syngeneic mouse cancer model, such as B16F10, mouse melanoma cell line. The study was performed by HD Biosciences/WuXi (San Diego, Calif.). B16F10 cells were expanded in culture for a maximum of five passages prior to implantation, until growing exponentially when harvested. On Day 0, B16F10 cells (0.2×10^6 cells in […] serum free media; >95% viable tumor cells) were implanted into the right hind flank of female C57Bl/6 mice. When a mean tumor volume of approximately 100 mm^3 (range 75-125 mm^3) was reached, tumor-bearing animals were randomized and treatments were initiated on the same day. Test peptides were resuspended in phosphate buffered saline (PBS) and administered once daily (QD) by subcutaneous injection at 10 mg/kg in 5.0 ml/kg vehicle. Vehicle (PBS) was administered QD by intraperitoneal injection in 5 ml/kg. Temozolomide was administered three times per week (TIW) by oral gavage at 50 mg/kg in 5.0 ml/kg vehicle. Animals were inspected daily over the course of 11 days for abnormalities. Tumor volumes were determined by calliper measurements twice per week and calculated according to the formula: V (mm^3)=W^2×L/2 (L=length and W=the perpendicular width of the tumor, L>W). Data are presented as the mean (SEM) of 8-10 animals per arm for tumor volume on Day 11 and percent decrease in tumor volume relative to vehicle control treatment. Treatment with a combination of test peptide and temozolomide produced a greater reduction in tumor volume compared to either vehicle control treatment or treatment with temozolomide alone.

[5] = system: C2C12 Mouse Myoblasts; experiment: Glucose utilization in C2C12 mouse myoblasts; format: cell-based; settings: metformin 1 mM
Experimental: The effect of the peptides on glucose metabolism can be assessed using an assay of glucose utilization in cultured cultured cells such as mouse myoblasts. Peptides were initially prepared as 10 mM stock in DMSO and used at a final concentration of 10 μM (0.1% DMSO). C2C12 mouse myoblast cell line was purchased from American Type Culture Collection (Manassas, Va.). C2C12 cultures were maintained at 37° C. in a humidified atmosphere of 5% CO2/95% air with medium changes every second day. C2C12 cells were grown in DMEM (1 g/L glucose) supplemented with 10% FBS with 100 IU/ml penicillin and 100 μg/ml streptomycin. C2C12 cells were seeded at 7,000 cells per well on 96-well plates and cultured to confluence. Once the cell reached confluence the media was changed to DMEM (1 g/L glucose) supplemented with 2% HS with 100 IU/ml penicillin and 100 μg/ml streptomycin and maintained at 37° C. in a humidified atmosphere of 5% CO2/95% air, 5 days post-induction of differentiation fresh DMEM (1 g/L glucose) supplemented with 2% HS with 100 IU/ml penicillin and 100 μg/ml streptomycin was added to cultures. Cells were maintained at 37° C. in a humidified atmosphere of 5% CO2 and 95% air for 5 hours. After 5 hours test peptides at 10 μM or controls (0.5 mM or 1 mM metformin in 1% DMSO) prepared in fresh differentiation medium were added to cells and the cultures were maintained at 37° C. in a humidified atmosphere of 5% CO2/95% air for 18-22 hours. At the end of the incubation culture media was removed from the cells and the remaining glucose concentration was measured using a Glucose Assay kit (Abcam) according to the manufacturer's instructions, using a Cytation 3 plate reader at 570 nm (BioTek, Winooski, Vt.). Glucose concentrations in the medium were calculated relative to 0.1% DMSO treated control cells. The relative standard deviation of the result for the 0.1% DMSO treated control was <20%. Metformin was used as a positive control for reduction of glucose levels (increased glucose utilization glucose levels for treatment with metformin (1 mM) treatment were <20% of the 0.1% DMSO treated control value. The results are reported in Table 7.

[6] = system: SH-SY5Y Neuroblastoma Cells; experiment: ATP levels (CellTiter-Glo); format: cell-based, human; settings: staurosporine 1 μM
Experimental: The effect of the peptides on cellular metabolism can be assessed using an assay of ATP levels in cultured cells such as human neuroblastoma cells. Peptides were initially prepared as 10 mM stock in DMSO and used at a final concentration of 10 μM (0.1% DMSO). […] CellTiter-Glo® Assay kit was purchased from Promega. SH-SY5Y human bone marrow neuroblastoma cell line was purchased from American Type Culture Collection (Manassas, Va.) and licensed from Memorial Sloan-Kettering Cancer Center (New York, N.Y.). SH-SY5Y cells were grown in DMEM/F12 medium supplemented with 10% FBS with 100 IU/ml penicillin and 100 μg/ml streptomycin. Cultures were maintained at 37° C. in a humidified atmosphere of 5% CO2/95% air. SH-SY5Y cells were seeded at 30,000 cells per well on 96-well plates. […] ATP levels were determined using a CellTiter-Glo Assay kit (Promega) according to the manufacturer's instructions. Luminescence for each sample well on the plate was measured using a Cytation 3 plate reader (BioTek, Winooski, Vt.). Activity was calculated relative to 0.1% DMSO treated control. The relative standard deviation of the result for the 0.1% DMSO treated control was <5%.

[7] = Cell viability, PrestoBlue assay; format: cell-based; settings: human; read-out: Cell viability, % of background corrected DMSO control value
Experimental: The effect of the peptides on cell viability can be assessed in cultured cells using suitable assay of viability such as the PrestoBlue® assay (Thermo Fisher Scientific, Waltham, Mass.). Peptides were initially prepared as 10 mM stock in DMSO and tested at a final concentration of 10 μM (0.1% DMSO). […] PrestoBlue Assay Reagent was purchased from Thermo Fisher Scientific. A172 human brain glioblastoma cell line was purchased from American Type Culture Collection (Manassas, Va.). A172 cells were grown in DMEM supplemented with 10% FBS with 100 IU/ml penicillin and 100 μg/ml streptomycin. Cultures were maintained at 37° C. in a humidified atmosphere of 5% CO2/95% air. A172 cells were seeded at 8,000 cells per well on 96-well plates. […] Cell viability was determined using a PrestoBlue Assay reagent […] according to the manufacturer's instructions. Absorption for each sample well on the plate was measured using a Cytation 3 plate reader at 560 nm and 590 nm (BioTek, Winooski, Vt.). Activity was calculated relative to 0.1% DMSO untreated control. Treatment with 0.1% DMSO alone was used as the cell viability activity control. The relative standard deviation of the DMSO control was <5%.

[8] = system: Rat H-4-II-E Cells; experiment: TBHP-induced reactive oxygen species (DCFDA); format: cell-based; settings: sulforaphane 10 uM
Experimental: The protective or synergistic effect of the peptides on cellular levels of reactive oxygen species (ROS) induced by oxidative stress can be assessed using an assay of ROS in cultured cells exposed to a suitable oxidative stress. Peptides were initially prepared as 10 mM stock in DMSO and tested at a final concentration of 10 μM (0.1% DMSO). […] TBHP was used at final concentration of […]. Sulforaphane was used at a final concentration of 10 uM as a protective antioxidant control against TBHP induced ROS production. DCFDA Cellular ROS Detection Assay kit was purchased from […]. H-4-II-E rat liver hepatoma cell line was purchased from American Type Culture Collection (Manassas, Va.). H-4-II-E cells were grown in DMEM supplemented with 10% FBS with 100 IU/ml penicillin and 100 μg/ml streptomycin. Cultures were maintained at 37° C. in a humidified atmosphere of 5% CO2/95% air. H-4-II-E cells were seeded at 15,000-20,000 cells per well on 96-well plates. The next day cells were incubated with test peptides at 10 μM in 0.1% DMSO or sulforaphane at 10 uM and maintained at 37° C. in a humidified atmosphere of 5% CO2/95% air for 18-20 hours. After 18-20 hours of incubation the cells were loaded with DCFDA for 45 min. TBHP at 100 μM was then added to the appropriate wells for 1 hour. ROS activity was determined using a DCFDA Cellular ROS Detection Assay kit (Abcam) according to the manufacturer's instructions. Fluorescence in each sample well on the plate was measured using a Cytation 3 plate reader at Ex/Em=485/535 nm (BioTek, Winooski, Vt.). Activity was calculated relative to TBHP control. […] Activity was calculated relative to THBP treated control.

[9] = system: 3T3-L1 Mouse Adipocytes; experiment: Free fatty acid levels in cultured mouse adipocytes; format: cell-based; settings: insulin 100 nM
Experimental: The effect of the peptides on fatty acid metabolism can be assessed using an assay of free fatty acid levels in cultured cells such as mouse adipocytes. Peptides were initially prepared as 10 mM stock in DMSO and used at a final concentration of 10 μM (0.1% DMSO). […] Mouse 3T3-L1 cells purchased from ZenBio were seeded at 3,000 cells per well in 96-well plates in Pre-adipocyte Medium (Zen-Bio) and grown to confluence at 37° C. in a humidified atmosphere of 5% CO2/95% air. Two days after confluence, cells were placed in Adipocyte Differentiation Medium (Zen-Bio) and cultured for three additional days at 37° C. in a humidified atmosphere of 5% CO2/95% air. The culture media was then replaced with Adipocyte Maintenance Medium (Zen-Bio) and the cells maintained for an additional 9-12 days at 37° C. in a humidified atmosphere of 5% CO2/95% air with partial medium replacement every other day. Following 12-15 days of differentiation, test peptides were added at a final concentration of 10 μM in 0.1% DMSO and incubated for 20-22 hours in Adipocyte Maintenance Medium at 37° C. in a humidified atmosphere of 5% CO2/95% air. After 20-22 hours, 1 nM isoproterenol was added to all wells except untreated controls and test peptides were replenished. Insulin at 100 nM was added to control wells. Cells were incubated for 3 hours in Assay Buffer (Zen-Bio) at 37° C. in a humidified atmosphere of 5% CO2/95% air. Free fatty acid concentrations in the media were determined using a Free Fatty Acid Assay kit (Zen-Bio) according to the manufacturer's instructions using a Cytation 3 plate reader at 540 nm (BioTek, Winooski, Vt.). Absorbance values were corrected for untreated background and expressed relative to isoproterenol treated cells. Treatment with isoproterenol (1 nM) alone was used as the free fatty acid level stimulatory control. The relative standard deviation of the isoproterenol control was <10%. […] Free fatty acid levels for insulin (100 nM) treatment were <5% of the isoproterenol control value.

c1cc(CN2CCCNCCNCCCNCC2)ccc1CN1CCCNCCNCCCNCC1 [AMD3100, reference compound]
inhibition at 0.1 µM ([1]; read-out: Percent Inhibition of CXCR4/CXCL12 Induced p-MEK (100 nM Test Article)): 79% | inhibition at 1 µM ([1]; read-out: Percent Inhibition of CXCR4/CXCL12 Induced p-MEK (1 μM Test Article)): 91% | inhibition at 30 µM [2]: 99% | inhibition at 1.1 µM [3]: 91%

Cn1nnc2c(C(N)=O)ncn2c1=O [Temozolomide, reference compound]
Mean (SEM) Percent Reduction in Tumor Volume vs Control [4]: 37.9% | Mean (SEM) Tumor Volume on Day 11 [4]: 1190 mm^3

CN(C)C(=N)N=C(N)N [metformin, Metformin, reference compound]
Glucose levels, % of 0.1% DMSO treated control value [5]: < 20%

CN[C@@H]1C[C@H]2O[C@@](C)([C@@H]1OC)n1c3ccccc3c3c4c(c5c6ccccc6n2c5c31)C(=O)NC4 [staurosporine, Staurosporine, reference compound]
ATP levels, % of 0.1% DMSO treated control value [6]: < 5% | viability at 1 µM [7]: < 75%

C[S+]([O-])CCCCN=C=S (stereo not drawn) [sulphorophane, Sulforaphane, reference compound]
ROS levels, % of the THBP-induced ROS level [8]: 45.5%

Insulin [reference compound]
Free fatty acid levels, % of isoproterenol control value [9]: < 5%

LERYHHS(dA)RSSLRPYT (LERYHHS[dA]RSSLRPYT) [SEQ ID NO: 5]
Mean (SEM) Percent Reduction in Tumor Volume vs Control [4]: 7.2% | Mean (SEM) Tumor Volume on Day 11 [4]: 1770 mm^3

LERYHHSVRSSLRPYTK (LERYHHSVRSSLRPYTK-NH2) [SEQ ID NO: 4]
Mean (SEM) Percent Reduction in Tumor Volume vs Control [4]: 14.9% | Mean (SEM) Tumor Volume on Day 11 [4]: 1620 mm^3
